From publication PMC12128024, “Copper(II) Cyclopeptides with High ROS-Mediated Cytotoxicity” (Bioconjugate Chemistry, 2025) come the findings set out here.

Structures are written as SMILES.

Broadly, the IC50 is the point on the concentration scale where inhibition reaches its midpoint.

Assay [1] concerns HCT-116 (colon carcinoma). The conditions noted are these: HCT-116, MTT, 48 h.
Description: (§1) IC50 is the concentration at which 50% growth inhibition is obtained and E max represents the efficacy of the compound at its maximum concentration, expressed as the maximum % cell inhibition achieved by the compound (see Section S6 and Figure S8 of the Supporting Information).
(§2) General method: cell lines and grown conditions
(§3) Non-small lung carcinoma NCI-H460, human colon carcinoma HCT-116, human glioma SF-268
(§4) and doxorubicin-resistance human mamma carcinoma NCI/ADR-RES cell lines, as well as
(§5) Eagle’s Minimal Essential Medium (EMEM) and RPMI1640 were purchased from the American Tissue Culture Collection (ATCC). Frozen cells were thawed in a 75 cm2 cell culture flask in RPMI
(§6) supplemented with 2 mM L-glutamine and 10% FBS and maintained at 37 °C in a 5% CO2
(§7) The inhibition of cell proliferation induced by the samples [1/Cu(II), 1 eq. cyclopeptide 1/3 eq. of
(§8) Cu(II); 2/Cu(II), 1 eq. cyclopeptide 2/5 eq. of Cu(II)]‚ was carried out by using MTT method for
(§9) HCT-116, NCI/ADR-RES and NCI-H460 cell lines. SF-268 cell growth inhibition induced by the
(§10) samples was assessed using a system based on crystal violet cell staining and subsequent
(§11) acetylation. Cells were seeded in a 96-well microplate (5000 cells/well for HCT-116, 10000
(§12) cells/well for SF-268 and 15000 cells/well for NCI/ADR-RES and NCI-H460 cell lines) in 100 μl
(§13) of growth medium and maintained at 37 °C for 24 h.
(§14) Then growth medium was replaced by fresh medium containing different concentrations of the
(§15) samples to be assayed and maintained at 37 °C in a 5% CO2 atmosphere for 48 h. After this
(§16) time, 10 μL MTT (5 mg/ml in PBS) were added to each well and maintained for 4 h at 37 °C in a
(§17) 5% CO2 atmosphere. Then 100 μL of 10% SDS in 0.01 M HCl were added to each well an
(§18) incubated for 12-14 h under the same experimental conditions. Absorbance due to formation
(§19) was detected in a Tecan infinity M1000 Pro reader using a wavelength of 595 nm. All assays
were performed with triplicate points.
b) Crystal violet cell staining
(§20) The samples dissolved in water were added, maintaining the same proportion of water in each
(§21) well (10%). After 72 h (at 37°C and in an atmosphere of 5% CO 2/95% air), the cells were fixed to
(§22) the plate with 10 μL of 11% glutaraldehyde solution, kept under agitation at room temperature,
(§23) for 15 minutes. Once fixed, the medium was removed and the cells were washed 3-4 times with
(§24) distilled water, followed by staining of the cells with 100 μL of a 0.1% crystal violet solution. This
(§25) solution was prepared by diluting 0.1g of crystal violet in 100 mL of buffer composed of 200 mM
(§26) phosphoric acid, 200 mM formic acid and 200 mM 2-(N-morpholino)-ethane sulphonic acid
(§27) (MES) at pH 6. The plate was kept shaking at room temperature for 15 minutes. The dye was
(§28) removed, washed 3-4 times with distilled water and dried. 100 μL of 10% acetic acid was then
(§29) added and kept under agitation for 15 minutes, at room temperature, so that the staining was
(§30) homogeneous in all wells. Finally, an absorbance reading of the plates was performed at a
(§31) wavelength of 595 nm (Tecan M1000 Infinite Pro). The assay was performed with triplicate points.
(§32) Data were expressed as the growth inhibition percentage calculated in basis on the equation: %
(§33) inhibition= 100 – [(AO × 100) / AT]. Where AT is the measured absorbance in wells containing
(§34) compounds and AO is the absorbance measured in blank wells (cells with medium and vehicle).
(§35) The inhibitory potency of compounds was calculated by constructing concentration-% growth
(§36) inhibition curves, and extrapolating IC50 values (concentration of compound that inhibits cells
The subject of assay [2] is SF-268 (human glioma). The conditions noted are these: SF-268, crystal violet, 72 h.
Description: as §1, §2, §3, §4, §5, §6, §7, §8, §9, §10, §11, §12, §13, §14, §15, §16, §17, §18, §19
were performed with triplicate points.
b) Crystal violet cell staining
as §20, §21, §22, §23, §24, §25, §26, §27, §28, §29, §30, §31, §32, §33, §34, §35, §36
The subject of assay [3] is NCI/ADR-RES (doxorubicin resistant ovarian carcinoma). The settings on record: NCI/ADR-RES, MTT, 48 h.
Description: as §1, §2, §3, §4, §5, §6, §7, §8, §9, §10, §11, §12, §13, §14, §15, §16, §17, §18, §19
were performed with triplicate points.
b) Crystal violet cell staining
as §20, §21, §22, §23, §24, §25, §26, §27, §28, §29, §30, §31, §32, §33, §34, §35, §36
The subject of assay [4] is NCI-H460 (lung carcinoma). The settings on record: NCI-H460, MTT, 48 h.
Description: as §1, §2, §3, §4, §5, §6, §7, §8, §9, §10, §11, §12, §13, §14, §15, §16, §17, §18, §19
were performed with triplicate points.
b) Crystal violet cell staining
as §20, §21, §22, §23, §24, §25, §26, §27, §28, §29, §30, §31, §32, §33, §34, §35, §36
The subject of assay [5] is nontransformed lung fibroblast (MRC-5). The conditions noted are these: MRC-5, 48 h.
Description: as §1, §2, §3, §4, §5, §6, §7, §8, §9, §10, §11, §12, §13, §14, §15, §16, §17, §18, §19
were performed with triplicate points.
b) Crystal violet cell staining
as §20, §21, §22, §23, §24, §25, §26, §27, §28, §29, §30, §31, §32, §33, §34, §35, §36
The mark [6] stands for this setting: 1/Cu(II) 3 equiv Cu(II), 2/Cu(II) 5 equiv Cu(II).

`N.N.[Cl][Pt][Cl]` [cisplatin, reference compound]: the IC50 in assay [1] (setting [6]) came out at 13 ± 1 µM; in assay [2] (setting [6]), 3.89 ± 0.08 µM; in assay [3] (setting [6]) it was 13 ± 1 µM; in assay [4] (setting [6]), 5.29 ± 0.46 µM; in assay [5] (setting [6]), 5.7 ± 0.22 µM. For the same compound, the “E max (maximum % cell inhibition)” value in assay [1] (at maximum concentration) was determined as 94 ± 1%; in assay [2] (at maximum concentration), 92 ± 1%; in assay [3] (at maximum concentration) it was 86 ± 1%; in assay [4] (at maximum concentration), 62 ± 4%; in assay [5] (at maximum concentration), 92 ± 1%.
